In paper PMC12670164, “In vitro and clinical data demonstrate negligible risk of drug–drug interactions with opelconazole, a novel inhaled antifungal agent” (Journal of Antimicrobial Chemotherapy, 2025):
In brackets after ≈: the same amount, converted by molar mass. Like-named read-outs stand apart in the source and are kept apart here.

Key:
[1] = Phase 1 study: safety and tolerability; format: in vivo, human
Description: Safety and tolerability were assessed by monitoring the incidence, nature and severity of adverse events (AEs) as well as by vital-sign measurements, 12-lead ECGs, clinical laboratory testing (haematology, chemistry and urinalysis), physical examination and lung function testing [forced expiratory volume in one second (FEV1) and forced vital capacity (FVC)].

[2] = test system: CYP isoforms; assay: Initial CYP inhibition study in human liver microsomes; format: in vitro ADME; settings: opelconazole 0.03 to 5 μM
[3] = set-up: method as in PMID 33340279; settings: cited from earlier work
[4] = set-up: method as in unpublished data; L.M.R. Cass and L. Berman; settings: ref unpublished data; L.M.R. Cass and L. Berman; cited from earlier work
[5] = target: CYP3A4 (Homo sapiens, UniProt P08684); settings: for IC50: read-out: IC50, CYP3A4
Description: The potential for opelconazole to inhibit CYP isoforms was tested in vitro in human liver microsomes. […] Preincubation of the human liver microsomes for periods of 0 min without NADPH and 30 min with NADPH, plus 30 min without NADPH were included to assess for a time-dependent inhibition effect. Two structurally diverse substrates (testosterone and midazolam) were tested to assess substrate-dependent inhibition.

[6] = target: T1, BCRP (Homo sapiens, UniProt Q9UNQ0); assay: Transporter inhibition; format: in vitro ADME
T1 construct: expressed in transfected cells
T1 sequence (Q9UNQ0 1-655): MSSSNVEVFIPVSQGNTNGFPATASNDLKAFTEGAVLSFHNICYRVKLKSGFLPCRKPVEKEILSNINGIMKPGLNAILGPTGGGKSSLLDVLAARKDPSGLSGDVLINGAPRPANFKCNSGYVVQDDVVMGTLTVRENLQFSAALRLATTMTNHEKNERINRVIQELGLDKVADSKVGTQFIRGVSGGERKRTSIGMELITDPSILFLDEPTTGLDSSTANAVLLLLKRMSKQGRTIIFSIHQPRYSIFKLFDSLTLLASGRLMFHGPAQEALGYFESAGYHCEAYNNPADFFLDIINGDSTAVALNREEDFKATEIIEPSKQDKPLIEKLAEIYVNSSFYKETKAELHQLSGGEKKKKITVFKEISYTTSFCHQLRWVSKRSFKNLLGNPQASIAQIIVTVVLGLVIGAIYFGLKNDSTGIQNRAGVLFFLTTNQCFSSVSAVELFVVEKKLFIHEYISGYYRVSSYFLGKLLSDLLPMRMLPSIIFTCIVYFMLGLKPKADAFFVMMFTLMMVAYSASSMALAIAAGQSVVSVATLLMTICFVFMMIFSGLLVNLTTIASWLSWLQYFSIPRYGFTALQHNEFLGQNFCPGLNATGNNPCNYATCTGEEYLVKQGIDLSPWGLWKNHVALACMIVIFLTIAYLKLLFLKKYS
Description: (§1) Human transporter protein interactions with opelconazole as a potential substrate and/or inhibitor were assessed for the following key carrier transporters: organic anion transporters, OAT1 and OAT3; organic cation transporters, OCT1 and OCT2; OATP1B1 and OATP1B3; multidrug and toxin extrusion, MATE-1 and MATE2-K; key ATP-binding cassette (ABC) transporters including P-gp, breast cancer resistance protein (BCRP) and bile salt export pump (BSEP). Two concentrations of opelconazole, 0.5 and 5 μM, were tested using MDCKII cells, human embryonic kidney 293 cells and BSEP-transfected sf9 membrane vesicles and then analysed by LC-tandem MS to determine transporter inhibition and whether opelconazole was a transporter substrate. The viability of experimental test systems was confirmed with controls and known probe substrates and probe inhibitors.

[7] = target: T2, OAT3 (Homo sapiens, UniProt Q8TCC7); assay: Transporter inhibition; format: in vitro ADME; settings: 0.5 and 5 μM tested
T2 construct: expressed in transfected cells
T2 sequence (Q8TCC7 1-542): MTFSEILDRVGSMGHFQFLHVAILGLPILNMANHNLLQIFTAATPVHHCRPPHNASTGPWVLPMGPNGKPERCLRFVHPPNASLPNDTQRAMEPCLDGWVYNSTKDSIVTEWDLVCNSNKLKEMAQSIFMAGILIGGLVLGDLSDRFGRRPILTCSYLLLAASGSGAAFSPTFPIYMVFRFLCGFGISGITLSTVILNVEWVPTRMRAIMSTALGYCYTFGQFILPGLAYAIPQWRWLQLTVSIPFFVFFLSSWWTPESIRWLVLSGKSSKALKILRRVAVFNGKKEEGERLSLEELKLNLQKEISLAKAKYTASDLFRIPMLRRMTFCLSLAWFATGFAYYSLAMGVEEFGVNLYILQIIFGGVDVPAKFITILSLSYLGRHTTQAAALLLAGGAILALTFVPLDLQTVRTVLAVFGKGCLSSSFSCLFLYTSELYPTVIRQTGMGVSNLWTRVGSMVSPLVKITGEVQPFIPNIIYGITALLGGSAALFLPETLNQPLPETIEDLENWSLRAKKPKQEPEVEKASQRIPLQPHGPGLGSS
Description: as §1

[8] = target: T3, OAT1 (Homo sapiens, UniProt Q4U2R8); assay: Transporter inhibition; format: in vitro ADME; settings: 0.5 and 5 μM tested
T3 construct: expressed in transfected cells
T3 sequence (Q4U2R8 1-563): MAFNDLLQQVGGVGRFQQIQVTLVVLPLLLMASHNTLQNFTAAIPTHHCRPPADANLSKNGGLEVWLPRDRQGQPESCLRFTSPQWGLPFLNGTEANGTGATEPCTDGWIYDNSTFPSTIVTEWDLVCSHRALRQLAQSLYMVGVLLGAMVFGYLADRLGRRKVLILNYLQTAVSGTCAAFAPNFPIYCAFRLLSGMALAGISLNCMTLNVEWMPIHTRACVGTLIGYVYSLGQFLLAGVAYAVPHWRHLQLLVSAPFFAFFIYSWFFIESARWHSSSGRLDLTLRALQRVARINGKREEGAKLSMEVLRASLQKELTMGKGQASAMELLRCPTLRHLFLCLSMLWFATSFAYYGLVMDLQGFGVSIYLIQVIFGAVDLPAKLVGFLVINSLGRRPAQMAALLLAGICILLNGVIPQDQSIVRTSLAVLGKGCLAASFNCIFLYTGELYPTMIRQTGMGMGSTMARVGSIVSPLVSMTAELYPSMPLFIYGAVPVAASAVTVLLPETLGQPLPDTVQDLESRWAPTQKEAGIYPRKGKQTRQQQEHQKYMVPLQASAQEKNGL
Description: as §1

[9] = substrate midazolam, 30-min preincubation

Chain of CYP3A4 (P08684 whole entry, canonical isoform): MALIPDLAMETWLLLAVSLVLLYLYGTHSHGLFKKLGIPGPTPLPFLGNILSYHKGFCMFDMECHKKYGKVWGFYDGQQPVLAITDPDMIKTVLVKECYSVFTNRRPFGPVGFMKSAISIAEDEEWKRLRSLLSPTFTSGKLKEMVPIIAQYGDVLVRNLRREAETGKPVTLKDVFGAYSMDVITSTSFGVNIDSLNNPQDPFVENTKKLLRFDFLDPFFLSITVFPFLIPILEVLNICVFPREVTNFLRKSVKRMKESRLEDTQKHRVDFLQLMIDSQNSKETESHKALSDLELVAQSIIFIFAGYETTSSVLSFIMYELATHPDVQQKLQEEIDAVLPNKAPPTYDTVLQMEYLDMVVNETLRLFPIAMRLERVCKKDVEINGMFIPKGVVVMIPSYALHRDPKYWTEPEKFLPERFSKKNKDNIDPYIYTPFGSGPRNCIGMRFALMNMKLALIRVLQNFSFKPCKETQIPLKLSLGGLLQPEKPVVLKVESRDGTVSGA

Cc1cc(N2CCN(c3ccc(C(=O)Nc4ccc(F)cc4)cc3)CC2)ccc1OC[C@@H]1CO[C@@](Cn2cncn2)(c2ccc(F)cc2F)C1 [opelconazole]
headache considered related to inhaled opelconazole, participants ([1]; 5/24 participants, all mild, 14.8 mg twice daily for 14 days with midazolam/caffeine): 20.8% | post-dose acute bronchospasm ([1]; any participant who received opelconazole): no evidence | changes in lung function (FEV1 and FVC) ([1]; any timepoint during the study): No clinically significant changes | deaths or serious AEs ([1]; healthy volunteers N = 24, 14.8 mg twice daily for 14 days): No deaths or serious AEs were reported | tolerability ([1]; inhaled 14.8 mg twice daily): generally well tolerated | CYP inhibition, initial study [2]: limited to CYP3A4 | plasma protein binding (PPB) [3]: 97% | oral bioavailability of any swallowed fraction [4]: negligible | IC50 [5, 9]: ~150 nM | IC50 ([5]; substrate midazolam, without pre-incubation, 0.001–0.25 µM): 123 nM | IC50 ([5]; substrate testosterone, 30-min preincubations with or without NADPH): 150 nM | IC50 ([5]; substrate testosterone, without pre-incubation, 0.001–0.25 µM): > 250 nM | IC50, CYP3A4 [5, 9]: ~0.102 µg/mL (≈ 0.149 µM) | time-dependent inhibition of CYP3A4 [5, 9]: not evident | inhibition of BCRP relative to solvent control ([6]; 0.5 μM opelconazole): 52% | inhibition of BCRP relative to solvent control ([6]; 5 μM opelconazole): 56% | inhibitory interaction with OAT3 [7]: negligible inhibitory interactions | inhibitory interaction with OAT1 [8]: negligible inhibitory interactions
